From publication PMC4456360, “A Recombinant Fungal Lectin for Labeling Truncated Glycans on Human Cancer Cells” (PLoS ONE, 2015)
Where “and” joins values, the source holds several entries; their conditions need not be identical. Equal values may be shown once. Marks after values point to notes of the source that are not given here.

What was measured:
rPVL [1] = molecular target: T1, rPVL (Lacrymaria velutina (Psathyrella velutina), UniProt Q309D1); assay: Thermal shift analysis of rPVL with glycan ligands; assay type: binding
T1 sequence (Q309D1 1-395): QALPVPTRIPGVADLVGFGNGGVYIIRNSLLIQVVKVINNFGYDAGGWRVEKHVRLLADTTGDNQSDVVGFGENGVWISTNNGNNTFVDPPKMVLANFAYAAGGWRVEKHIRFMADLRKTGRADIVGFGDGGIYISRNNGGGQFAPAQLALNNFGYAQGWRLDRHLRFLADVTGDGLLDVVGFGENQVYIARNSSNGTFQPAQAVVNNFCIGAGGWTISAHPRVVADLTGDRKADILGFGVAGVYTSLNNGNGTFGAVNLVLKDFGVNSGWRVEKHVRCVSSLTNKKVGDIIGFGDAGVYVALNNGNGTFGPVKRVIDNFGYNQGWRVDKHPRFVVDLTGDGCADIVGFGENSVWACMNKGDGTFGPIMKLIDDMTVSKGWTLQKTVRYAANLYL
Protocol: Thermal shift assays were performed using a Mini Opticon, Real Time PCR machine (Bio-Rad Laboratories) with 0.5 mg ml^-1 of protein diluted in 100 mM NaCl, 20 mM Tris pH 7.5, 100 μM CaCl2, with or without oligosaccharide in a total reaction volume of 25 μl. SYPRO Orange (Molecular Probes, CA) was used as a fluorescent probe detected at 530 nm. The temperature was raised using 1°C/minute steps from 25°C to 100°C and fluorescence readings were taken at each interval. […] A minimum of two independent measurements were performed for each condition

rPVL [2] = molecular target: T1, rPVL; assay: Surface plasmon resonance, oligosaccharides injected over rPVL-coated CM5 chip; assay type: binding; details: 25°C, rPVL immobilized on chip; for Kd: read-out: SPR Kd
Protocol: All SPR experiments were performed on a Biacore X100 instrument (GE Healthcare) at 25°C in HBS (10 mM Hepes/NaOH, pH 7.5, 150 mM NaCl, 0.05% Tween 20) supplemented with 100 μM of CaCl2 at a flow rate of 30 μl min^-1. Binding was measured as resonance units over time after blank subtraction, and data were then evaluated by using the Biacore X100 evaluation software, version 2.0. Dissociation constants were determined by plotting response at equilibrium (Req, 10 s before the end of injection) against analyte concentration. For protein coated chip, 3500 resonance units of rPVL (100 μg ml^-1, 10 mM acetate buffer pH 6.2) have been immobilized on flow channel 2 of a research grade CM5 chip using standard amine coupling procedures. Flow channel 1 has been activated/deactivated. Experiments consist of injection (association 360 s, dissociation 400 s) of various concentrations of oligosaccharides (2 fold cascade dilutions, from 0 to 10 μM) on both channels.

rPVL [3] = molecular target: T1, rPVL; assay: Titration microcalorimetry (ITC), rPVL in solution; assay type: binding; details: for ITC -∆H / ITC T∆S / Kd / ITC n (number of binding sites per monomer): 25°C; for Kd: rPVL in solution; for ITC n: stoichiometry value fixed during fitting procedure
Protocol: Recombinant lyophilized rPVL was dissolved in buffer (20 mM Tris/HCl, pH 7.5, NaCl 150 mM, 100 μM CaCl2) and degassed. The protein concentration was checked by measuring A280 by using a theoretical molar extinction coefficient of 65,890 M^-1 cm^-1. Carbohydrate ligands were dissolved in the same buffer, degassed, and loaded in the injection syringe. ITC was performed with a ITC200 microcalorimeter (GE Healthcare). The rPVL solution was placed in a 200 μl sample cell at 25°C. Titration was performed with 20 injections of 2 μl carbohydrate ligands every 120 s. The experimental data were fitted to a theoretical titration curve using Origin software supplied by GE Healthcare, with ΔH (enthalpy change), Ka (association constant) and n (number of binding sites per monomer) as adjustable parameters. Free energy change (ΔG) and entropy contributions (TΔS) were derived from the equation ΔG = ΔH – TΔS = —RT ln Ka (with T as the absolute temperature and R = 8.314 J mol^-1 K^-1). Two independent titrations were performed for each tested ligand.

rPVL [4] = molecular target: T1, rPVL; assay: Glycan array (CFG Mammalian Printed Array version 5.1); assay type: binding; details: Alexa Fluor 488 labeled rPVL
From the text: Purified rPVL were labeled with Alexa Fluor 488 (Invitrogen) according to the manufacturer’s instructions and repurified on a D-Salt polyacrylamide desalting column (Pierce). Alexa-labeled rPVL was used for glycan array screening with the standard procedure of the Protein-Glycan Interaction Core (H) of the Consortium for Functional Glycomics.

native PVL = molecular target: native PVL; parameters: method as in PMID 16497330; details: ITC, native PVL isolated from mushroom; cited from earlier work

| Compound | Kd (rPVL [2]) | ITC -∆H (rPVL [3]) | ITC T∆S (rPVL [3]) | Kd (rPVL [3]) | also measured |
| --- | --- | --- | --- | --- | --- |
| CC(=O)N[C@H]1[C@H](O[C@H]2[C@@H](O)[C@@H](CO)OC(O)[C@@H]2O)O[C@H](CO)[C@@H](O)[C@@H]1O (some centres unmarked) [GlcNAcβ1-3Gal] | 103 µM | 10.1 kcal/mol | -4.66 kcal/mol | 110 µM | Tm of rPVL in the presence of ligand (rPVL [1]): 60 °C |
| O=C[C@H](O)[C@@H](O)[C@@H](O)[C@H](O)CO [galactose] |  |  |  |  | stabilization of rPVL by carbohydrate (in words) (rPVL [1]): non-binding |
| CC(=O)N[C@H]1[C@H](O[C@H]2[C@H](O)[C@@H](NC(C)=O)[C@H](O[C@H]3[C@H](O)[C@@H](NC(C)=O)C(O)O[C@@H]3CO)O[C@@H]2CO)O[C@H](CO)[C@@H](O[C@@H]2O[C@H](CO)[C@@H](O[C@@H]3O[C@H](CO)[C@@H](O)[C@H](O)[C@H]3NC(C)=O)[C@H](O)[C@H]2NC(C)=O)[C@@H]1O (stereo partly drawn) [GlcNAc(β1-4GlcNAc)4, GlcNAcβ1-4GlcNAcβ1-4GlcNAcβ1-4GlcNAcβ1-4GlcNAc] | 358 µM |  |  |  |  |
| CC(=O)N[C@H]1[C@H](O[C@H]2[C@H](O)[C@@H](NC(C)=O)C(O)O[C@@H]2CO)O[C@H](CO)[C@@H](O)[C@@H]1O (some centres unmarked) [GlcNAcβ1-4GlcNAc] | 205 µM | 8.82 kcal/mol | -3.49 kcal/mol | 122 µM | Tm of rPVL in the presence of ligand (rPVL [1]): 60 °C; ITC n (rPVL [3]): 5.0 ^b; binding of rPVL on glycan array (in words) (rPVL [4]): only weakly |
| CC(=O)N[C@H]1[C@H](O[C@H]2[C@@H](O)[C@@H](CO)O[C@@H](O[C@H]3[C@H](O)[C@@H](O)C(O)O[C@@H]3CO)[C@@H]2O)O[C@H](CO)[C@@H](O)[C@@H]1O (some centres unmarked) [GlcNAcβ1-3Galβ1-4Glc (LNT2), GlcNAcβ1-3Galβ1-4Glc] | 71 µM | 9.97 kcal/mol | -4.57 kcal/mol | 108 µM | Kd (rPVL [2]; listed as lacto-N-triose): ~70 µM; ITC n (number of binding sites per monomer) (rPVL [3]): 5.0 ± 0.2 |
| CC(=O)N[C@@H]1[C@@H](O)[C@H](O[C@@H]2O[C@H](CO)[C@@H](O[C@@H]3O[C@H](CO[C@H]4O[C@H](CO)[C@@H](O)[C@H](O)[C@@H]4O[C@@H]4O[C@H](CO)[C@@H](O)[C@H](O)[C@H]4NC(C)=O)[C@@H](O)[C@H](O[C@H]4O[C@H](CO)[C@@H](O)[C@H](O)[C@@H]4O[C@@H]4O[C@H](CO)[C@@H](O)[C@H](O)[C@H]4NC(C)=O)[C@@H]3O)[C@H](O)[C@H]2NC(C)=O)[C@@H](CO)O[C@H]1N=[N+]=[N-] [Biantennary N-glycan (2)] | 179 µM | 3.27 kcal/mol | 2.82 kcal/mol | 34 µM and 34.4 µM | ITC n (number of binding sites per monomer) (rPVL [3]): 1.9 ± 0.6; ITC n (number of binding sites per monomer) (rPVL [3]; listed as biantennary heptasaccharide): two |
| CC(=O)N[C@H]1[C@H](O[C@H]2[C@@H](O)[C@@H](CO)OC(O)[C@@H]2NC(C)=O)O[C@H](CO)[C@H](O)[C@@H]1O (some centres unmarked) [GalNAcβ1-3GalNAc] |  |  |  |  | binding of rPVL on glycan array (in words) (rPVL [4]): minor intensity |
| CC(=O)N[C@@H]1[C@@H](O)[C@H](O)[C@@H](CO)O[C@H]1O [GlcNAc, N-acetylglucosamine] | 132 µM | 9.85 kcal/mol | -4.3 kcal/mol | 124 µM | Kd (native PVL): ~200 µM; ITC n (rPVL [3]): 5.0 ^b |
| OC[C@H]1O[C@@](CO)(O[C@H]2O[C@H](CO)[C@@H](O)[C@H](O)[C@H]2O)[C@@H](O)[C@@H]1O [sucrose] |  |  |  |  | stabilization of rPVL by carbohydrate (in words) (rPVL [1]): non-binding |
| Galβ1-3GlcNAcβ1-3Galβ1-4Glc [Galβ1-3GlcNAcβ1-3Galβ1-4Glc (LNT)] |  |  |  |  | SPR Kd (rPVL [2]): No binding |
